Assay results reported in US20210400967A1, “COMPOSITIONS COMPRISING PYRIDINE CARBOXYLATE HERBICIDES WITH GLYPHOSATE OR GLUFOSINATE” (Corteva Agriscience LLC, priority 2018, published 2021).

Experiments:
Format in all cases: in vivo
[1] = system: Brassica napus (winter rape); assay: Greenhouse postemergence herbicidal effect, winter rape (BRSNW); details: 20-22 d; for % visual injury: Example 1
Text: (§1) Greenhouse Trial Methodology—Evaluation of Postemergence Herbicidal Effect
(§2) Seeds of the desired test plant species were planted in a 90:10% v/v (volume/volume) mixture of PRO-MIX® BX (Premier Tech Horticulture, Quakertown, Pa., USA) and PROFILE® GREENS GRADE™ (Profile Products LLC, Buffalo Grove, Ill., USA) planting mixture, which typically has a pH of 5.2 to 6.2 and an organic matter content of at least 50 percent, in plastic pots with a surface area of 103.2 square centimeters (cm^2). In some aspects, to ensure good germination and healthy plants, a fungicide treatment and/or other chemical or physical treatment was applied. The plants were grown for 7-36 days (d) in a greenhouse with an approximate 14-hour (h) photo-period which was maintained at about 23° C. during the day and 22° C. during the night. Nutrients and water were added on a regular basis and supplemental lighting was provided with overhead metal halide 1000-Watt lamps as necessary. The plants were employed for testing when they reached the second or third true leaf stage.
(§3) Emulsifiable concentrates of each of each pyridine carboxylate herbicide (Compound A or Compound B) were prepared at 100 grams acid equivalent per liter (g ae/L). The emulsifiable concentrates also included a safener, cloquintocet-mexyl, at 120 grams active ingredient per liter (g ai/L). An aliquot of each emulsifiable concentrate was placed in a 25 mL glass vial and diluted with an aqueous mixture of 1.25% (v/v) ACTIROB® B esterified rapeseed oil (Bayer Crop Science, Research Triangle Park, N.C., USA) or MSO® Concentrate with LECI-TECH® methylated soybean oil (Loveland Products, Loveland, Colo., USA) to obtain concentrated stock solutions at the highest application rate for each herbicide, based upon a 12 milliliter (mL) application volume at a rate of 187 liters per hectare (L/ha). The concentrated stock solutions were further diluted with an aqueous mixture of 1.25% v/v ACTIROB® B or MSO® Concentrate with LECI-TECH® to obtain stock solutions at reduced application rates for each herbicide. Spray solutions of the herbicide combinations (Compound A or Compound B plus glyphosate or glufosinate) were prepared by adding weighed amounts or aliquots of the glyphosate or glufosinate to the stock solutions of Compound A or Compound B to form 12-mL spray solutions in two-way combinations.
(§4) The spray solutions were applied to the plant material with an overhead Mandel track sprayer equipped with 8002E nozzles calibrated to deliver 187 L/ha over an application area of 0.503 square meters (m^2) at a spray height of 18 inches (43 centimeters (cm)) above the average plant canopy. Control plants were sprayed in the same manner with the solvent blank. All pyridine carboxylate herbicide (component a) application rates are given as “g ae/ha” and all glyphosate or glufosinate (component b) application rates are given as “g ai/ha.”
(§5) The treated plants and control plants were placed in a greenhouse as described above and watered by sub-irrigation to prevent wash-off of the test compounds. After 20-22 d, the condition of the test plants as compared with that of the control plants was determined visually and scored on a scale of 0 to 100 percent where 0 corresponds to no injury and 100 corresponds to complete kill.

[2] = system: Polygonum convolvulus (wild buckwheat); assay: Greenhouse postemergence herbicidal effect, wild buckwheat (POLCO); details: 20-22 d; for % visual injury: Example 1
Text: as §1, §2, §3, §4, §5

[3] = system: Sinapis arvensis (wild mustard); assay: Greenhouse postemergence herbicidal effect, wild mustard (SINAR); details: 20-22 d; for % visual injury: Example 1
Text: as §1, §2, §3, §4, §5

[4] = system: Salsola kali (Russian thistle); assay: Greenhouse postemergence herbicidal effect, Russian thistle (SASKR); details: 20-22 d; for % visual injury: Example 1
Text: as §1, §2, §3, §4, §5

Kochia scoparia (kochia) = assay: Greenhouse postemergence herbicidal effect, kochia (KCHSC); details: 20-22 d; for % visual injury: Example 1
Text: as §1, §2, §3, §4, §5

[5] = system: Chenopodium album L. (common lambsquarters); assay: Greenhouse postemergence herbicidal effect, common lambsquarters (CHEAL); details: 20-22 d; for % visual injury: Example 1
Text: as §1, §2, §3, §4, §5

[6] = system: Amaranthus retroflexus (pigweed); assay: Greenhouse postemergence herbicidal effect, pigweed (AMARE); details: 20-22 d; for % visual injury: Example 1
Text: as §1, §2, §3, §4, §5

[7] = system: Matricaria chamomilla (wild chamomile); assay: Greenhouse postemergence herbicidal effect, wild chamomile (MATCH); details: 20-22 d; for % visual injury: Example 1
Text: as §1, §2, §3, §4, §5

[8] = system: Cirsium arvense (Canadian thistle); assay: Greenhouse postemergence herbicidal effect, Canadian thistle (CIRAR); details: 20-22 d; for % visual injury: Example 1
Text: as §1, §2, §3, §4, §5

[9] = system: Triticum aestivum (spring wheat); assay: Greenhouse postemergence phytotoxicity on crop, spring wheat (TRZAS); details: 20-22 d; for % visual injury: Example 1
Text: as §1, §2, §3, §4, §5

[10] = system: Hordeum vulgare (spring barley); assay: Greenhouse postemergence phytotoxicity on crop, spring barley (HORVS); details: 20-22 d; for % visual injury: Example 1
Text: as §1, §2, §3, §4, §5

[11] = system: Viola tricolor (wild pansy); assay: Greenhouse postemergence herbicidal effect, wild pansy (VIOTR); details: Example 5, 20-22 d
Text: as §1, §2, §3, §4, §5

[12] = system: Stellaria media (chickweed); assay: Greenhouse postemergence herbicidal effect, chickweed (STEME); details: Example 5, 20-22 d
Text: as §1, §2
(§6) Emulsifiable concentrates of each of each pyridine carboxylate herbicide (Compound A or Compound B) were prepared at 100 grams acid equivalent per liter (g ae/L). The emulsifiable concentrates also included a safener, cloquintocet-mexyl, at 120 grams active ingredient per liter (g ai/L). […]
as §5

[13] = system: Echinochloa crus-galli (barnyardgrass); assay: Greenhouse postemergence herbicidal effect, barnyardgrass (ECHCG); details: Example 5, 20-22 d
Text: as §1, §2, §6, §5

[14] = system: Euphorbia heterophylla (poinsettia); assay: Greenhouse postemergence herbicidal effect, poinsettia (EPHHL); details: Example 5, 20-22 d
Text: as §1, §2, §6, §5

[15] = system: Sorghum vulgare (grain sorghum); assay: Greenhouse postemergence herbicidal effect, grain sorghum (SORVU); details: Example 5, 20-22 d
Text: as §1, §2, §6, §5

[16] = system: Cyperus esculentus (nutsedge); assay: Greenhouse postemergence herbicidal effect, nutsedge (CYPES); details: Example 5, 20-22 d
Text: as §1, §2, §6, §5

[17] = system: Rumex obtusifolius (broad-leaf dock); assay: Greenhouse postemergence herbicidal effect, broad-leaf dock (RUMOB); details: Example 5, 20-22 d
Text: as §1, §2, §6, §5

[18] = system: Ipomoea hederacea (ivyleaf morningglory); assay: Greenhouse postemergence herbicidal effect, ivyleaf morningglory (IPOHE); details: Example 5, 20-22 d
Text: as §1, §2, §6, §5

[19] = system: Helianthus annuus (common sunflower); assay: Greenhouse postemergence herbicidal effect, common sunflower (HELAN); details: Example 5, 20-22 d
Text: as §1, §2, §6, §5

[20] = Example 2, Compound A 7.5 g ae/ha alone
[21] = Example 2, Compound A 10 g ae/ha alone
[22] = Example 6, Compound A 7.5 g ae/ha alone
[23] = Example 6, Compound A 10 g ae/ha alone
[24] = Example 5, Compound A 7.5 g ae/ha alone
[25] = Example 5, Compound A 10 g ae/ha alone

N#CCOC(=O)c1nc(-c2ccc3cc[nH]c3c2F)c(F)c(N)c1Cl [Compound A, cyanomethyl 4-amino-3-chloro-5-fluoro-6-(7-fluoro-1H-indol-6-yl)pyridine-2-carboxylate]
% visual injury ([1]; Compound A 7.5 g ae/ha alone): 35%
% visual injury ([1]; Compound A 10 g ae/ha alone): 43%
% visual injury, Obs [1, 20]: 35%
% visual injury, Obs [1, 21]: 40%
% visual injury, Obs [1, 22]: 35%
% visual injury, Obs [1, 23]: 40%
% visual injury ([2]; Compound A 7.5 g ae/ha alone): 78%
% visual injury ([2]; Compound A 10 g ae/ha alone): 93%
% visual injury, Obs [2, 20]: 30%
% visual injury, Obs [2, 21]: 43%
% visual injury, Obs [2, 24]: 83%
% visual injury, Obs [2, 25]: 93%
% visual injury, Obs [2, 22]: 30%
% visual injury, Obs [2, 23]: 43%
% visual injury ([3]; Compound A 7.5 g ae/ha alone): 88%
% visual injury ([3]; Compound A 10 g ae/ha alone): 90%
% visual injury, Obs [3, 20]: 83%
% visual injury, Obs [3, 21]: 88%
% visual injury, Obs [3, 22]: 83%
% visual injury, Obs [3, 23]: 88%
% visual injury ([4]; Compound A 7.5 g ae/ha alone): 60%
% visual injury ([4]; Compound A 10 g ae/ha alone): 63%
% visual injury, Obs [4, 20]: 60%
% visual injury, Obs [4, 21]: 63%
% visual injury, Obs [4, 22]: 60%
% visual injury, Obs [4, 23]: 63%
% visual injury (Kochia scoparia (kochia); Compound A 7.5 g ae/ha alone): 63%
% visual injury (Kochia scoparia (kochia); Compound A 10 g ae/ha alone): 63%
% visual injury, Obs (Kochia scoparia (kochia); [20]): 70%
% visual injury, Obs (Kochia scoparia (kochia); [21]): 70%
% visual injury, Obs (Kochia scoparia (kochia); [24]): 75%
% visual injury, Obs (Kochia scoparia (kochia); [25]): 73%
% visual injury, Obs (Kochia scoparia (kochia); [22]): 70%
% visual injury, Obs (Kochia scoparia (kochia); [23]): 70%
% visual injury ([5]; Compound A 7.5 g ae/ha alone): 88%
% visual injury ([5]; Compound A 10 g ae/ha alone): 93%
% visual injury, Obs [5, 20]: 75%
% visual injury, Obs [5, 21]: 80%
% visual injury, Obs [5, 22]: 75%
% visual injury, Obs [5, 23]: 80%
% visual injury ([6]; Compound A 7.5 g ae/ha alone): 78%
% visual injury ([6]; Compound A 10 g ae/ha alone): 73%
% visual injury, Obs [6, 20]: 90%
% visual injury, Obs [6, 21]: 85%
% visual injury, Obs [6, 22]: 90%
% visual injury, Obs [6, 23]: 85%
% visual injury ([7]; Compound A 7.5 g ae/ha alone): 20%
% visual injury ([7]; Compound A 10 g ae/ha alone): 30%
% visual injury, Obs [7, 20]: 10%
% visual injury, Obs [7, 21]: 20%
% visual injury, Obs [7, 22]: 10%
% visual injury, Obs [7, 23]: 20%
% visual injury ([8]; Compound A 7.5 g ae/ha alone): 30%
% visual injury ([8]; Compound A 10 g ae/ha alone): 40%
% visual injury, Obs [8, 20]: 40%
% visual injury, Obs [8, 21]: 55%
% visual injury, Obs [8, 24]: 40%
% visual injury, Obs [8, 25]: 60%
% visual injury, Obs [8, 22]: 40%
% visual injury, Obs [8, 23]: 55%
% visual injury ([9]; Compound A 7.5 g ae/ha alone): 0%
% visual injury ([9]; Compound A 10 g ae/ha alone): 0%
% visual injury, Obs [9, 20]: 0%
% visual injury, Obs [9, 21]: 0%
% visual injury, Obs [9, 22]: 0%
% visual injury, Obs [9, 23]: 0%
% visual injury ([10]; Compound A 7.5 g ae/ha alone): 0%
% visual injury ([10]; Compound A 10 g ae/ha alone): 0%
% visual injury, Obs [10, 20]: 0%
% visual injury, Obs [10, 21]: 0%
% visual injury, Obs [10, 22]: 0%
% visual injury, Obs [10, 23]: 0%
% visual injury, Obs ([11]; Compound A 7.5 g ae/ha alone): 38%
% visual injury, Obs ([11]; Compound A 10 g ae/ha alone): 15%
% visual injury, Obs ([12]; Compound A 7.5 g ae/ha alone): 89%
% visual injury, Obs ([12]; Compound A 10 g ae/ha alone): 90%
% visual injury, Obs ([13]; Compound A 7.5 g ae/ha alone): 88%
% visual injury, Obs ([13]; Compound A 10 g ae/ha alone): 80%
% visual injury, Obs ([14]; Compound A 7.5 g ae/ha alone): 97%
% visual injury, Obs ([14]; Compound A 10 g ae/ha alone): 97%
% visual injury, Obs ([15]; Compound A 7.5 g ae/ha alone): 0%
% visual injury, Obs ([15]; Compound A 10 g ae/ha alone): 0%
% visual injury, Obs ([16]; Compound A 7.5 g ae/ha alone): 30%
% visual injury, Obs ([16]; Compound A 10 g ae/ha alone): 8%
% visual injury, Obs ([17]; Compound A 7.5 g ae/ha alone): 20%
% visual injury, Obs ([17]; Compound A 10 g ae/ha alone): 13%
% visual injury, Obs ([18]; Compound A 7.5 g ae/ha alone): 20%
% visual injury, Obs ([18]; Compound A 10 g ae/ha alone): 25%
% visual injury, Obs ([19]; Compound A 7.5 g ae/ha alone): 90%
% visual injury, Obs ([19]; Compound A 10 g ae/ha alone): 89%
